Measurements: patent publication US11667616B2, “Oral GSNOR inhibitor and pharmaceutical use thereof” (NANJING MEDICAL UNIVERSITY, priority 2020, dated 2023)

Columns and labels:
GSNOR = biological target: T1, GSNOR (Homo sapiens, UniProt P11766); experiment: GSNOR activity in lysate of treated HUVECs (NADH consumption at 340 nm); assay type: cell-based; details: for activities in in-vitro studies: relative to N6022
T1 construct: the cell lysate supernatants were treated with a substrate GSNO and a coenzyme NADH; endogenous in cells; host or cells: HUVEC (human umbilical vein endothelial cells)
Source text: GSNOR plays a crucial regulatory role in asthma and cystic fibrosis.

HUVECs [1] = experiment: Endothelial cell sphere sprouting under high glucose; assay type: cell-based, Human; details: high glucose 30 mM, 10 nM, 24 h
Source text: (§1) FIG. 3A, FIG. 3B and FIG. 3C show study of the in-vitro activity of the subject compound 1 against diabetic vascular complications.

[2] = system: human aortic smooth muscle cells (HASMCs); experiment: Contractile/synthetic marker expression in angiotensin II-treated smooth muscle cells; assay type: cell-based; details: angiotensin II 1 μM, 10 nM, 24 hours
Source text: Then, cellular RNA were extracted to detect contractile/synthetic markers of smooth muscle cells.

[3] = system: diabetic C57BL/6J mice with lateral limb ischemia; experiment: Streptozotocin diabetes + lateral limb ischemia model; assay type: in vivo
Description: To generate diabetes model, mice at week 8 were intraperitoneally injected with streptozotocin (60 mg/kg/day) for consecutive 5 days, then the modeling was identified as a success if the blood glucose was measured to be greater than 16.6 mmol/L at week 10. […] The gastrocnemius muscles of the ischemic lateral limbs of the mice were isolated for frozen section, and immunofluorescence (platelet-endothelial cell adhesion molecule, CD31) was used to detect the angiogenesis (FIG. 6B); and the semimembranosus muscles were isolated for frozen section, and immunofluorescence (α-smooth muscle actin, α-SMA) was used to detect the arteriogenesis (FIG. 6B).

[4] = Pharmacokinetic study, plasma concentration by LC-MS/MS; assay type: in vivo, ICR mice; details: ICR, mouse; for half-life: read-out: drug half-life period (converted)
Source text: Then, the plasma concentration was detected by LC-MS/MS at hour 0.083, 0.25, 0.5, 1, 2, 4, 8 and 24 respectively (FIG. 5).

[5] = system: C57BL/6J mice with β-aminopropionitrile-induced aortic aneurysm/dissection; experiment: β-aminopropionitrile-induced aortic aneurysm/dissection model; assay type: in vivo
HUVECs [6] = experiment: Endothelial cell tube formation under high glucose; assay type: cell-based, Human; details: high glucose 30 mM, 10 nM, 24 h
Source text: It is known that in the diabetic vascular complications, decreased angiogenesis and increased vascular endothelial permeability are among the risk factors causing local edema, ischemia followed by ulcer and amputation.
as §1

HUVECs [7] = experiment: Endothelial cell permeability under high glucose; assay type: cell-based, Human; details: high glucose 30 mM, 10 nM, 24 h
Source text: as §1

[8] = gavage 6 mg/kg/day vs N6022 iv 1 mg/kg/day, N6022-1 gavage 5.6 mg/kg/day, N6022-2 gavage 5.3 mg/kg/day
[9] = gavage 6 mg/kg/day, β-aminopropionitrile drinking water 28 days

T1 sequence (P11766 whole entry): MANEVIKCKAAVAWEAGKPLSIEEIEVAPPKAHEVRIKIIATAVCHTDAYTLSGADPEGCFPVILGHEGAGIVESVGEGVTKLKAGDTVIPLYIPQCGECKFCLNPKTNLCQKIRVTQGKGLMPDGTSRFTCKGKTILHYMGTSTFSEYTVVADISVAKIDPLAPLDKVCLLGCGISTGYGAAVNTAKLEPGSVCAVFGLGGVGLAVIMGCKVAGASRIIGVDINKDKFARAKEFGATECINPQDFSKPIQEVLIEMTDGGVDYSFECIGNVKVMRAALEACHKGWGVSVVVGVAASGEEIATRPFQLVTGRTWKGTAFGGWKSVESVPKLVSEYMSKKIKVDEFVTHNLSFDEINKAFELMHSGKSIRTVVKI

Compound	activities in in-vitro studies (GSNOR)	sprouting ability of the endothelial cells (HUVECs [1])	decrease in the expression of the contractile markers (actin α2, calmodulin 1, transgelin) due to angiotensin II [2]	increase in the expression of the synthetic markers (osteopontin, Kruppel-like factor 4, Kruppel-like factor 5) due to angiotensin II [2]	angiogenesis of the ischemic lateral limbs of the diabetic mice (CD31, α-SMA) ([3]; gavage 6 mg/kg/day after operation)	effect on diabetic limb ischemia compared with controls [3, 8]	blood flow recovery of the lateral limbs (laser speckle imaging) ([3]; gavage 6 mg/kg/day, day 0, 7 and 14)	bioavailability ([4]; po) [%]	half-life [4] [h]	effect on aortic aneurysm/dissection compared with controls [5, 8]	expansion of the aortic diameter [5, 9]	mortality rate of the mice [5, 9]	angiogenesis ability of endothelial cells (tube formation) (HUVECs [6])	permeability of the endothelial cells (HUVECs [7])	inhibitory effect on the GSNOR activity (GSNOR; 10 nM, 24 hours, HUVECs, lysate + GSNO + NADH)
Cc1cc(C(N)=O)ccc1-n1c(CCC(N)=O)ccc1-c1ccc(-n2ccnc2)cc1 [N6022-1]	significantly reduced														
CCOC(=O)CCc1ccc(-c2ccc(-n3ccnc3)cc2)n1-c1ccc(C(N)=O)cc1C [N6022-2]	significantly reduced														
Cc1cc(C(N)=O)ccc1-n1c(CCC(=O)N2CCSC2=O)ccc1-c1ccc(-n2ccnc2)cc1 [subject compound 1, s4-(2-(4-(1H-imidazol-1-yl)phenyl)-5-(3-oxo-3-(2-oxothiazolidin-3-yl)propyl)-1H-pyrrol-1-yl)-3-methylbenzamide]	good activity in vitro	improve sprouting ability	obviously inhibit	obviously inhibit	obviously promote	equivalent effect to the group intravenously injected with N6022	restore blood flow	60.1 ± 7.91	1.62 ± 0.81	equivalent effect to the group intravenously injected with N6022	inhibited	inhibited	obviously improve	modify the permeability	equivalent to N6022
Cc1cc(C(N)=O)ccc1-n1c(CCC(=O)O)ccc1-c1ccc(-n2ccnc2)cc1 [N6022, 3-(5-(4-(1H-imidazol-1-yl)phenyl)-1-(4-carbamoyl-2-methylphenyl)-1H-pyrrol-2-yl) propanoic acid, reference compound]			obviously inhibit	obviously inhibit					0.76 ± 0.15				obviously improve		
